Consider one compound from patent US6482851B1, “Synthesis of dysidiolide and uses thereof” (Sloan-Kettering Institute for Cancer Research, priority 1998, dated 2002).

Data set [1] deals with TSU-Pr1, PC3 and DU145 human prostrate cancer cells. As to the kind of experiment: apoptosis by FACS detection of fragmented DNA. Type of data set: cell-based. The conditions noted are these: 24 hours. Here is the method: (§1) Cells containing fragmented DNA content were detected as the M1 (subG1) region on DNA content plots.
Effects of dysidiolide at the cellular level. Dysidiolide was cytotoxic to several human tumor cell lines. […] (A) Human tumor cells were treated for 24 hours in the presence of various concentrations of dysidiolide or DMSO vehicle. Cells were analyzed by FACS and the percentage of cells bearing less than the 2 n DNA complement was determined. (B) Immunofluorescence micrographs of TSU-Pr1 human prostrate cancer cells untreated or treated for 6 hours with 2-50 μM dysidiolide.
(Flow cytometry measures light scatter and fluorescence of single cells or particles in a stream.)

Another data set deals with TSU-Pr1 cells. As to the kind of experiment: BrdU pulse-label FACS of TSU-Pr1 cells. Type of data set: cell-based, human. The conditions noted are these: 3.33 μM, 24 hours. Here is the method: (§2) TSU-Pr1 cells were treated for 24 hours with either DMSO or 3.33 μM dysidiolide. Cells were pulse-labeled for 30 min with bromodeoxyuridine (BrdU) and analyzed by FACS. The R@ window contains BRDU-positive, S-phase cells. Consistent with the proposed inhibitory effect of dysidiolide on the positive cell cycle regulator Cdc25. the drug inhibited the activity of cyclin-dependent kinases (Cdk). Cdk4, 6 and 2 were immunoprecipitated from DMSO- or drug-treated TSU-Pr1 cell cultures. Activity was examined in vitro kinase assays. The activity of the three Cdks was inhibited in drug-treated cells, as early as 3 hours in drug.

The test system of another data set is Cdc25 C. As to the kind of experiment: steady-state levels of Cdc25 C in MCF7 cell lysates. Type of data set: cell-based, human. Here is the method:
Effect of dysidiolide on the activity of Cdk2 and on the steady-state levels of Cdc25A and Cdc25C. MCF7 cells were treated for 2 or 4 hr with 0, 2 or 10 μM dysidiolide. A) The kinase activity of Cdk2 was assayed on immunoprecipitates using histone H1 as exogenous substrate. B) The steady-state levels of Cdc25 A and C were analyzed in total cell lysates with specific antibodies (Santa Cruz Biotechnology's sc097 and sc327 antibodies were used for detection of Cdc25 A and C, respectively).
(§3) (A) Effect of 50 μM dysidiolide on the steady-state levels of Cdc25 A and C, and of other cell cycle regulators in MCF7 cells after a 24 hr treatment.
To further characterize the effects of dysidiolide on cell cycle control, experiments were conducted at the molecular level. As Cdc25s (A, B and C) are positive regulators of cyclin-dependent kinases (Cdk) (reviewed in Draetta and Eckstein, BBA 1332: M53-M63, 1997) inhibition of Cdc25 is expected to result in inhibition of Cdk activity. MCF7 cells were treated with 2 or 10 μM dysidiolide or with DMSO (controls) for 2 or 4 hr. Cell extracts were used to measure the steady-state levels of Cdc25 A and C, and Cdk activity. […] However, a decrease in the levels of Cdc25 C (but not on A) was clearly noticeable (FIG. 9B). In the next experiment MCF7 cells were treated for 24 hr with 50 μM dysidiolide or with DMSO (control) for 24 hr. […]

In a further data set the test system is Cdk6. As to the kind of experiment: in vitro kinase assay of Cdk6 immunoprecipitated from treated TSU-Pr1 cells. Type of data set: cell-based, human. Conditions: 3.33 μM, TSU-Pr1, as early as 3 hours in drug. The method, then:
as §2
In vitro kinase assays of Cdk. TSU-Pr1 cells were treated with 3.33 μM dysidiolide for 0-24 hours. Samples were collected at various times and the activity of Cdk4, 6 and 2 was determined. Cdks were immunoprecipitated with specific antibodies and incubated with radiolabeled ATP plus either histH1 (for Cdk2) or GST-Rb (for Cdk4 and 6). Reactions were separated on SDS-polyacrylamide gels and the amount of phosphorylated product was determined by radiometric analysis.

For data set [2], the system named is p21, p27, cyclin D1 and cyclin E. As to the kind of experiment: steady-state levels of other cell cycle regulators in MCF7 cells. It is filed as cell-based, human. The conditions noted are these: 50 μM, 24 hr. Here is the method:
as §3

The test system of data set [3] is lung carcinoma and murine leukemia cell lines. Conditions: cited from earlier work.
The subject of data set [4] is TSU-Pr1, PC3, DU145 and MCF7 human cancer cell lines. As to the kind of experiment: viability (Trypan blue exclusion) and FACS sub-G1 of four human cancer cell lines. Type of data set: cell-based. Here is the method: Effect of dysidiolide on the viability of the human cancer cell lines (A) TSU-Pr1, (B) MCF7, (C) PC3, and (D) DU145. Cultures were untreated or treated with 2, 10 or 50 μM dysidiolide for 24 hr. All cultures received a final DMSO concentration of 0.25%. Cells were harvested by trypsinization and viability was determined by Trypan blue exclusion.
FACS analysis of (A) TSU-Pr1, (B) PC3, (C) DU145, and (D) MCF7, untreated or treated with 2, 10 or 50 μM dysidiolide for 24 hr. All cultures received a final DMSO concentration of 0.25%.
as §1
A 20 mM stock solution of dysidiolide was prepared in dimethylsulfoxide (DMSO) and a pilot experiment was carried out to measure the effects of the drug on the viability (Trypan blue exclusion) and flow cytometric parameters of four human cancer cell lines: the prostate lines TSU-Pr1, PC3 and DU145, and the breast line, MCF7. Cultures were treated with 0, 2, 10 and 50 μM dysidiolide for 24 hr. Dysidiolide was cytotoxic to the four lines as evidenced by the loss of Trypan blue exclusion capability and by the appearance of sub-G1 fraction on flow cytometric (FACS) analysis (FIGS. 3 and 4A-D). […] (At 50 μM dysidiolide, the level of cell death was too high in TSU-Pr1 cells to fit a valid histogram (FIG. 5A)). […]

Entries after “also recorded” stand apart in the source; their conditions may differ.

With `C=C(C)CCC[C@@]1(C)CCC[C@H]2C1=CC[C@H](C)[C@]2(C)C[C@H](O)C1=CC(=O)O[C@@H]1O` (racemic) [dysidiolide], the apoptosis result in data set [1] is on record as “massive apoptosis; also recorded: induced apoptotic cell death”. In the data set with TSU-Pr1 cells, the cell cycle arrest result was “induces G1 arrest”. Further, the “levels of Cdc25 C” value is “reduced” in the data set with Cdc25 C (50 μM, 24 hr) and “decrease” with Cdc25 C (2 or 10 μM, 2 or 4 hr). For the same compound, in the data set on Cdk6, the Cdk6 activity entry is on record as “inhibited”. In data set [2], the “levels of p21, p27, cyclin D1 and cyclin E” value is “reduced levels”. Moreover, in data set [3], the “growth of lung carcinoma and murine leukemia cell lines” value is recorded as “inhibits growth”. The “cytotoxicity (loss of Trypan blue exclusion, sub-G1 fraction)” value in data set [4] (2, 10 and 50 μM, 24 hr) is “cytotoxic”. Moreover, the growth arrest result in data set [4] (2-50 μM, within 24 hours, four human cancer cell lines) is “growth arrest”.
